According to patent publication US20220227796A1, “EGFR INHIBITORS, COMPOSITIONS AND METHODS THERE OF” (Betta Pharmaceuticals Co., Ltd., priority 2019, published 2022):
Like-named read-outs stand apart in the source and are kept apart here.

How the values were obtained:
Assay type in all cases: cell-based
Ba/F3-L858R/T790M/C797S [1] = target: T1, Ba/F3-L858R/T790M/C797S (Homo sapiens, UniProt P00533, T790M/C797S, cells depend on it, form not given); experiment: Ba/F3-L858R/T790M/C797S cells proliferation assay; conditions: summary in words of Table 2; covers both Ba/F3 triple mutant lines
T1 construct: covers both
T1 sequence (P00533 whole entry T790M/C797S/L858R, form open): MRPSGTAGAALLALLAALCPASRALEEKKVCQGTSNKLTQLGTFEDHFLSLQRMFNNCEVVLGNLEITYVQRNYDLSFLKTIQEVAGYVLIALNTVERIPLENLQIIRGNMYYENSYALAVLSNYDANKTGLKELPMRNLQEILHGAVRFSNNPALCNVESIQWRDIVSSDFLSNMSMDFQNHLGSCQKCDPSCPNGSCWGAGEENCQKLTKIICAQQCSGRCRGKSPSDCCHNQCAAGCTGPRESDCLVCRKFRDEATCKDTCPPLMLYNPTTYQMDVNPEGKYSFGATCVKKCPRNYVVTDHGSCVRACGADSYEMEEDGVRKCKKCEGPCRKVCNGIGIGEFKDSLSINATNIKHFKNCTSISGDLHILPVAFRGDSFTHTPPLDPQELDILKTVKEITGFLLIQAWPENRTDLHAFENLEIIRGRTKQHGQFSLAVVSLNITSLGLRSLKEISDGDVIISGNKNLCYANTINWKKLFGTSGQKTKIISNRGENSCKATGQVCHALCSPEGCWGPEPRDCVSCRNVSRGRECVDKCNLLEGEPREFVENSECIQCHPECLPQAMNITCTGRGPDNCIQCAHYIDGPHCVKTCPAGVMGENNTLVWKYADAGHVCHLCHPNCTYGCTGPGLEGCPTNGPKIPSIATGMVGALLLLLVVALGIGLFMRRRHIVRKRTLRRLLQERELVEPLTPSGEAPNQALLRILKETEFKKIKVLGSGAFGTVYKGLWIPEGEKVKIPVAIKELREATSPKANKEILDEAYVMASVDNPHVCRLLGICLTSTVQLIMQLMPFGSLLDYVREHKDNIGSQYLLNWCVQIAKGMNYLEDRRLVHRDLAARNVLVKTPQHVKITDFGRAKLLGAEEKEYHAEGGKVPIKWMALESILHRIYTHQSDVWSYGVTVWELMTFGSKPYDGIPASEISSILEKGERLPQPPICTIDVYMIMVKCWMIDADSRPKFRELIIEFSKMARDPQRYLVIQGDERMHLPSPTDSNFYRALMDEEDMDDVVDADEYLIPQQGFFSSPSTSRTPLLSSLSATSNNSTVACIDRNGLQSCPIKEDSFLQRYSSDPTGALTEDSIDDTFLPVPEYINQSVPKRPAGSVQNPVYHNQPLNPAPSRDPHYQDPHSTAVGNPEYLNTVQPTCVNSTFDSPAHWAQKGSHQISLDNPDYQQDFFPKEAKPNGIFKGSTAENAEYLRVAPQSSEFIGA
Experimental: (§1) a) The medium was preheated in a 37 water bath in advance.
(§2) b) Remove the cryogenic vials from the liquid nitrogen tank, quickly put it into a 37° C. water bath, and completely melt it in 1 min.
(§3) c) Transfer the cell suspension to a 15 mL centrifuge tube containing 8 mL medium, centrifuge 1000 rpm, 5 min,
(§4) d) Discard the supernatant, resuspend the cells in 1 mL medium, and transfer to a 75 cm^2 flask containing 15 mL medium, culture the cells in an incubator at 37° C., 5% CO2.
(§5) a) The medium was preheated in a 37° C.; water bath in advance.
(§6) b) Collect cell to a 15 mL centrifuged tube, centrifuge at 1000 rpm for 5 min. Discard the supernatant, count, and make the cell density at 1×10^4 cells/mL, then place it in a 37° C., 5% CO2 incubator.
(§7) b) The above compound solution was diluted 1:20 times with culture medium to prepare a 10 fold working solution;
(§8) a) Take cells in log phase growth, centrifuge at 1000 rpm for 5 min, then resuspend the cells with culture medium, then count cells;
(§9) b) Cells were seeded to 96-well cell culture plate with density at 2000 cells/well;
(§10) The blank control well was a culture medium (0.5% DMSO);
(§11) b) The cells were incubated for an additional 72 h in the incubator.
(§12) a) Remove the 96-well cell culture plate and add 50 μl of CTG reagent (CellTiter Glo kit, promega, Cat #G7573).
(§13) b) Plate was shaked for 2 min and then let it cool for 10 min at room temperature.
(§14) c) The Luminescence signal value was read using a PerkinElmer reader.
(§15) Experimental Data Analysis
(§16) Data were analyzed using GraphPad Prism 6.0 software to obtain a fitted curve of compound activity.
(§17) Y=Bottom+(Top−Bottom)/(1+10^((Log IC50−X)*Hill Slope));
(§18) The cells proliferation assay results are expressed with IC50, shown as Table 2.

Ba/F3-L858R/T790M/C797S [2] = target: T2, Ba/F3-L858R/T790M/C797S (Homo sapiens, UniProt P00533, T790M/C797S/L858R, cells depend on it); experiment: Ba/F3-L858R/T790M/C797S cells proliferation assay; conditions: cell proliferation, 72 h, CellTiter Glo, read-out: BaF3 L858R/T790M/C797S IC50
T2 construct: BaF3 L858R/T790M/C797S IC50; other: cell proliferation, 72 h, CellTiter Glo; class symbols; numeric values
T2 sequence (P00533 whole entry T790M/C797S/L858R): as the sequence (P00533 whole entry T790M/C797S/L858R, form open) above
Experimental: as §1, §2, §3, §4, §5, §6, §7, §8, §9, §10, §11, §12, §13, §14, §15, §16, §17, §18

Ba/F3-Δ19del/T790M/C797S = Ba/F3-Δ19del/T790M/C797S (Homo sapiens, UniProt P00533, T790M/C797S, cells depend on it, form not given); experiment: Ba/F3-Δ19del/T790M/C797S cells proliferation assay; conditions: cell proliferation, 72 h, CellTiter Glo, read-out: BaF3 Δ 19del/T790M/C797S IC50
Sequence of Ba/F3-Δ19del/T790M/C797S (P00533 with tags, fused parts or gaps DEL746-750/T790M/C797S, form open): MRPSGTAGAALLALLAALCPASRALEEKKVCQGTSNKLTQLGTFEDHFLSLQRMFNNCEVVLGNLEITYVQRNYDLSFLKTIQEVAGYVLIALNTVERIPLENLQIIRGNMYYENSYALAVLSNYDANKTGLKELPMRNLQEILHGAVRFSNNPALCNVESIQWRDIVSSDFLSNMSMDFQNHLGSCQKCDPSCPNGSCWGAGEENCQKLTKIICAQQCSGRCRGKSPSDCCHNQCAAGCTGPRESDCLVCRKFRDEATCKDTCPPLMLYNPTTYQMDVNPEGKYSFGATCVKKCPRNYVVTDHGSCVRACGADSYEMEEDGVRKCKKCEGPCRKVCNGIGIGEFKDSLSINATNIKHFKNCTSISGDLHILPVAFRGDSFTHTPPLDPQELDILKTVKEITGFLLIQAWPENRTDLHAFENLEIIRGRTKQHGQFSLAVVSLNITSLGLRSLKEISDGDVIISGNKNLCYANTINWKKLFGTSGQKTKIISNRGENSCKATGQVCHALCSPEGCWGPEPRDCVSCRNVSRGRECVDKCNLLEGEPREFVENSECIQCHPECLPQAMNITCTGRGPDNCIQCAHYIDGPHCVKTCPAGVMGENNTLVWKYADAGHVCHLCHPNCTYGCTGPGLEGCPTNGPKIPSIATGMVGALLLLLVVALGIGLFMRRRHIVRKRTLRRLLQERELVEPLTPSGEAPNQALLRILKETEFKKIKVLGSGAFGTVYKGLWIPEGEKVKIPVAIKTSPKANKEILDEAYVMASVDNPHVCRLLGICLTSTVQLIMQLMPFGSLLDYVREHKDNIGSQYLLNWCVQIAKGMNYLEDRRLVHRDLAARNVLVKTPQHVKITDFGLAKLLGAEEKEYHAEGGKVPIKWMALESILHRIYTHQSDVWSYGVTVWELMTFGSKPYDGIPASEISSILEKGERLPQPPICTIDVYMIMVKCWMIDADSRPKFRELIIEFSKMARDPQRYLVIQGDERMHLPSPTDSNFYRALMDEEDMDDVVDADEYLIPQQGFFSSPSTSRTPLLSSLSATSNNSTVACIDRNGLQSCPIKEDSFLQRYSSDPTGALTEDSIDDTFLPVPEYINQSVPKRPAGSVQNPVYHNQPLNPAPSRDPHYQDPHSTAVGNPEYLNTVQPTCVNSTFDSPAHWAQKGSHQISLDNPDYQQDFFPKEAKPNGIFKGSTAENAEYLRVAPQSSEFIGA
Experimental: as §1, §2, §3, §4, §5, §6, §7, §8, §9, §10, §11, §12, §13, §14, §15, §16, §17, §18

H1975(L858R/T790M) = experiment: H1975 cells proliferation assay; conditions: for IC50: Homo sapiens, NCI-H1975, cell proliferation, 72 h, CellTiter Glo, numeric values, read-out: H1975 IC50; for inhibition of double mutant (L858R/T790M): summary in words of Table 2
How it was run: (§19)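 HCC827 (2500 cells/well) and H1975 (2000 cells/well) cells seeded in 96-well plates and exposed to compounds for 72 h at 37° C, 5% CO2; 0.5% DMSO medium as blank. Viability by CellTiter-Glo luminescence; IC50 from four-parameter logistic fit.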

HCC827(Δ19del) = experiment: HCC827 cells proliferation assay; conditions: Homo sapiens, HCC827; cell proliferation, 72 h, CellTiter Glo; numeric values; read-out: HCC827 IC50
How it was run: as §19

Row | Structure (SMILES) | inhibition of triple mutant (L858R/T790M/C797S or Δ19del/T790M/C797S) (Ba/F3-L858R/T790M/C797S [1]) | GI50 (Ba/F3-L858R/T790M/C797S [2]; numeric values) | GI50 (Ba/F3-Δ19del/T790M/C797S; numeric values) | IC50 (H1975(L858R/T790M)) | inhibition of double mutant (L858R/T790M) (H1975(L858R/T790M)) | GI50 (Ba/F3-L858R/T790M/C797S [2]; class symbols) | IC50 (HCC827(Δ19del)) | GI50 (Ba/F3-Δ19del/T790M/C797S; class symbols)
1 | COc1cc(N2CCC(N3CCN(C)CC3)CC2)c(C)cc1Nc1ncc(Br)c(Nc2ccc3nccnc3c2P(C)(C)=O)n1 [Comparative compound C, (6-((5-bromo-2-((2-methoxy-5-methyl-4-(4-(4-methylpiperazin-1-yl)piperidin-1-yl)phenyl)amino)pyrimidin-4-yl)amino)quinoxalin-5-yl)dimethylphosphine oxide, reference compound] | higher inhibition | 16.8 nM | 9.6 nM | 71.4 nM | relatively low inhibition | – | – | –
2 | CCN1CC2(C1)CN(c1ccc(Nc3ncc(Cl)c(Nc4ccccc4P(C)(C)=O)n3)cc1C)C2 [Comparative compound A, (2-((5-chloro-2-((4-(6-ethyl-2,6-diazaspiro[3.3]heptan-2-yl)-3-methylphenyl)amino)pyrimidin-4-yl)amino)phenyl)dimethylphosphine oxide, reference compound] | higher inhibition | – | – | 61.7 nM | relatively low inhibition | < 10 nM | 89.5 nM | < 10 nM
3 | CCc1cc(Nc2ncc(Br)c(Nc3ccc4nccnc4c3P(C)(C)=O)n2)c(OC)cc1N1CCC(N2CCN(C)CC2)CC1 [Comparative compound D, (6-((5-bromo-2-((5-ethyl-2-methoxy-4-(4-(4-methylpiperazin-1-yl)piperidin-1-yl)phenyl)amino)pyrimidin-4-yl)amino)quinoxalin-5-yl)dimethylphosphine oxide, reference compound] | higher inhibition | 12.9 nM | 5.7 nM | 83.6 nM | relatively low inhibition | – | – | –
